{
  "source": "patent US20200079785A1",
  "about": "“MITOMYCIN C PRODRUG LIPOSOME FORMULATIONS AND USES THEREOF” (MALLINCKRODT LLC, priority 2016, published 2020)",
  "key": {"[1]": {"tested_on": "HT29 colorectal adenocarcinoma xenografts", "description": "The anti-tumor activity of liposomal MMC prodrugs were evaluated in female Hsd:Athymic Nude-Foxn1^nu/nu mice (approximately 25 g) implanted subcutaneous with HT29 colorectal adenocarcinoma cells or (1×10^6). Once tumors reached a median size of 200 mm^3, animals were randomized into five (5) groups, normalized by tumor volume. Animals without tumors were not included in this study. […]\nAccording to NCI euthanasia guidelines, mice were removed from the study if they loss 20% of their initial bodyweight or became moribund or if their tumor volume exceeded 2500 mm^3 or if the tumor ulcerated. Tumor volume was measured with the TumorImager system at least twice per week and calculated with the TumorManager software, and mice were weighed twice per week.\nTumor volume was expressed as mean and median and plotted as a function of time. Animals removed from the study due to excess tumor size beyond 2500 mm^3 had values carried forward as 2500 mm^3 in the median plot only. Groups with less than 50% animals remaining were not carried forward for further tumor analysis. The following parameters were determined from tumor size and survival analysis: tumor growth inhibition (TGI), tumor growth delay (TGD), and median survival. The ratio of treated versus control tumor volume (% T/C) was calculated as: […]\nStatistical significance of observed differences between growth curves were evaluated by One-Way ANOVA followed by posthoc test if significant.\nIn another study, mice bearing HT29 colorectal adenocarcinoma xenografts were given a single intravenous dose of liposomal MMC Prodrugs (MP-3854 or MP-3861), free MMC, or saline and the results are summarized FIGS. 7 and 8 and Table 10 below.\nIn another study, mice bearing HT29 colorectal adenocarcinoma xenografts were given a single intravenous dose of liposomal MMC Prodrug (W-3854) or saline and the results are summarized FIG. 10 and Table 12 below.\nIn a further study, mice bearing HT29 colorectal adenocarcinoma xenografts were given a single intravenous dose of liposomal MMC Prodrug (W-3854) or saline and the results are summarized FIG. 11 and Table 13 below."}, "[2]": {"test": "Plasma pharmacokinetics of liposomal MMC prodrugs in mice", "format": "in vivo", "source_text": "The plasma pharmacokinetics of liposomal MMC prodrugs and free MMC were studied in mice. The liposomal MMC prodrugs are described in Table 6 below.\nAnimals were randomized into five (5) groups, each with 18 mice.\nThree animals were sacrificed at the appropriate time points post injection. Blood samples were taken for pharmacokinetic analysis at each time point (Table 8). Approximately 0.4 mls of blood was collected, via cardiac puncture under isoflurane anesthesia, into a lithium heparin tube and placed on ice. The samples were spun to obtain the plasma, which were stored in microfuge tubes at −80° C."}, "[3]": {"tested_on": "HT29 colorectal adenocarcinoma cells", "test": "In vitro cell kill assay", "format": "cell-based", "description": "MCC, MMC prodrugs, and liposomal MMC prodrugs were evaluated in an in vitro cell kill assay. MMC, MMC prodrug, and liposomal MMC prodrug samples were diluted in DPBS as a starting concentration, then serially diluted 1:3 in DPBS (i.e., 70 μL:140 μL). HT29 colorectal adenocarcinoma cells were plated at 100 μL/well in 10% FBS/McCoy's 5a+Pen/Strep media at 5×10^4 cells/mL, based on approximated 24-h doubling time. The plates were incubated at 37° C. overnight to allow the cells to adhere. Next, 10 μL/well treatment dose of MMC, MMC prodrug, or liposomal MMC prodrug was added to the wells, and the plates were incubated at 37° C. […] After a 2-h incubation, the media was removed from the plate and 100 μL/well drug-free media was added before returning to the incubator. After a 24-h incubation, the media was removed from the plate and 100 μL/well drug-free media was added before returning to the incubator. After a 72-h incubation, the media was removed from all of the plates and 100 μL/well drug-free media with 10% Alamar was added to each and returned to the incubator.\nCell viability was measured using WST-1 cell proliferation colorimetric assay or AlamarBlue. 50 mL of 10% WST/McCoy's 5a media was prepared from 5 mL of WST+45 mL of media; 50 mL of 10% Alamar Blue/McCoy's 5a media was prepared from 5 mL of Alamar Blue+45 mL of media. 10% WST/McCoy's 5a media or 10% Alamar Blue/McCoy's 5a was added, and the plates were returned to the incubator to develop, followed by subsequent reading of the fluorescence or absorbance."}, "A549 NSCLC xenografts": {"tested_on": "A549 NSCLC xenografts", "test": "In vivo anti-tumor activity, A549 xenografts", "design": "species or system mice", "conditions": "single IV, 5 mg/kg MMC-eq"}, "[4]": {"conditions": "in vivo; cited from earlier work"}, "[5]": {"test": "Conversion of MMC prodrug to MMC in cysteine solution (HPLC)", "format": "physicochemical", "conditions": "cysteine solution pH 6.95, 37° C., after 2 h"}, "[6]": {"conditions": "Table 10, single IV, 3 mg/kg MMC-eq"}, "[7]": {"conditions": "Table 10, single IV, 5 mg/kg MMC-eq"}, "[8]": {"conditions": "2 h drug incubation, read-out: IC50"}, "[9]": {"conditions": "24 h drug incubation, read-out: IC50"}, "[10]": {"conditions": "72 h drug incubation, read-out: IC50"}},
  "note": "pIC50: −log10 of the molar value. Where two headings read alike, the source gives them in different places.",
  "data": [
    {"smiles": "CO[C@@]12[C@H](COC(N)=O)C3=C(C(=O)C(C)=C(N)C3=O)N1C[C@@H]1N[C@@H]12", "note": "[MMC, Mitomycin C]", "values": [
      {"measurement": "% T/C", "setting": "[1]; Table 9, 2 mpk q7d x3", "result": 72, "unit": "%"},
      {"measurement": "% T/C", "setting": "[1]; Table 9, 3 mpk q7d x3", "result": 13, "unit": "%"},
      {"measurement": "% T/C", "setting": "[1]; Table 9, 5 mpk q7d x3", "result": 5, "unit": "%"},
      {"measurement": "% T/C", "setting": "[1]; Table 9, 5 mpk single", "result": 77, "unit": "%"},
      {"measurement": "% T/C", "setting": "[1]; [6]", "result": 83, "unit": "%"},
      {"measurement": "Median Survival", "setting": "[1]; [6]", "result": 48, "unit": "days"},
      {"measurement": "TGD (1000 mm3 Days)", "setting": "[1]; [6]", "result": 5.2, "unit": "days"},
      {"measurement": "% T/C", "setting": "[1]; [7]", "result": 48, "unit": "%"},
      {"measurement": "Median Survival", "setting": "[1]; [7]", "result": 54, "unit": "days"},
      {"measurement": "TGD (1000 mm3 Days)", "setting": "[1]; [7]", "result": 9.5, "unit": "days"},
      {"measurement": "Half-Life", "setting": "[2]; Mitomycin C in plasma after high dose of MP-3854 (25 mg/kg MMC-eq)", "result": "LLD"},
      {"measurement": "Half-Life", "setting": "[2]; Mitomycin C in plasma after low dose of MP-3854 (5 mg/kg MMC-eq)", "result": "LLD"},
      {"measurement": "pIC50", "setting": "[3]; Homo sapiens, HT-29, 2 h", "result": 5.74},
      {"measurement": "pIC50", "setting": "[3]; Homo sapiens, HT-29, 24 h", "result": 6.76},
      {"measurement": "pIC50", "setting": "[3]; Homo sapiens, HT-29, 48 h", "result": 6.96},
      {"measurement": "pIC50", "setting": "[3]; Homo sapiens, HT-29, 72 h", "result": 6.70},
      {"measurement": "% T/C", "setting": "A549 NSCLC xenografts", "result": 90, "unit": "%"},
      {"measurement": "Median Survival", "setting": "A549 NSCLC xenografts", "result": 76, "unit": "days"},
      {"measurement": "TGD (1000 mm3 Days)", "setting": "A549 NSCLC xenografts", "result": 32, "unit": "days"},
      {"measurement": "half-life alpha", "setting": "[4]", "result": 8, "unit": "min"},
      {"measurement": "half-life terminal", "setting": "[4]", "result": 48, "unit": "min"}
    ]},
    {"smiles": "CO[C@@]12[C@H](COC(N)=O)C3=C(C(=O)C(C)=C(N)C3=O)N1C[C@H]1[C@@H]2N1C(=O)OCCSSCCN1CCCCC1", "note": "[MP-3827]", "values": [
      {"measurement": "pIC50", "setting": "[3]; [8]", "result": 5.23},
      {"measurement": "pIC50", "setting": "[3]; [9]", "result": 5.58},
      {"measurement": "pIC50", "setting": "[3]; 48 h drug incubation, read-out: IC50", "result": 5.77},
      {"measurement": "pIC50", "setting": "[3]; [10]", "result": 5.89}
    ]},
    {"smiles": "CO[C@@]12[C@H](COC(N)=O)C3=C(C(=O)C(C)=C(N)C3=O)N1C[C@H]1[C@@H]2N1C(=O)OCc1ccc(SSCCN2CCCCC2)cc1", "note": "[MP-3832, 4-((2-(piperidin-1-yl)ethyl)disulfanyl)benzyl(1aS,8S,8aR,8bS)-6-amino-8-((carbamoyloxy)methyl)-8a-methoxy-5-methyl-4,7-dioxo-1a,4,7,8,8a,8b-hexahydroazirino[2′,3′:3,4]pyrrolo[1,2-α]indole-1(2H)-carboxylate]", "values": [
      {"measurement": "pIC50", "setting": "[3]; [8]", "result": 5.33},
      {"measurement": "pIC50", "setting": "[3]; [9]", "result": 5.84},
      {"measurement": "pIC50", "setting": "[3]; [10]", "result": 5.77}
    ]},
    {"smiles": "CO[C@@]12[C@H](COC(N)=O)C3=C(C(=O)C(C)=C(N)C3=O)N1C[C@H]1[C@@H]2N1C(=O)OCCSSCCN1CCN(C)CC1", "note": "[MP-3854, 2-((2-(4-methylpiperazin-1-yl)ethyl)disulfanyl)ethyl (1aS,8S,8aR,8bS)-6-amino-8-((carbamoyloxy)methyl)-8a-methoxy-5-methyl-4,7-dioxo-1a,4,7,8,8a,8b-hexahydroazirino[2′,3′:3,4]pyrrolo[1,2-a]indole-1(2H)-carboxylate]", "values": [
      {"measurement": "conversion of prodrug", "setting": "[5]", "result": "complete conversion"},
      {"measurement": "MMC generated", "setting": "[5]; HPLC 360 nm", "result": 92, "unit": "Area %"},
      {"measurement": "pIC50", "setting": "[3]; Homo sapiens, HT-29, 2 h drug incubation, read-out: IC50", "result": 4.38},
      {"measurement": "pIC50", "setting": "[3]; Homo sapiens, HT-29, 24 h drug incubation, read-out: IC50", "result": 5.38},
      {"measurement": "pIC50", "setting": "[3]; Homo sapiens, HT-29, 72 h drug incubation, read-out: IC50", "result": 5.51}
    ]}
  ]
}
